Data taken from patent US6517812B1, “Inhibition of psychostimulant-induced and nicotine-induced craving” (The General Hospital Corporation, priority 1997, dated 2003).

Assays:
D1 receptor [1] = molecular target: T1, D1 receptor (Rattus norvegicus, UniProt P18901); test: SCH-23390 pretreatment before cocaine, LDF of frontal cortex CBF in rat; type: in vivo; details: 0.5 mg/kg cocaine after SCH-23390 pretreatment, n=3, p<0.04
T1 construct: Male Harlan Sprague-Dawley rats (225-300 gm) were anesthetized briefly; from tissue; host or cells: brain of living male Sprague-Dawley rats (in vivo)
Protocol: All procedures were carried out in accordance with NIH guidelines. Male Harlan Sprague-Dawley rats (225-300 gm) were anesthetized briefly with 1.5% halothane in oxygen for insertion of left femoral arterial and venous cannulae and placement of tracheostomy for mechanical ventilation (using a 16 gauge intravenous catheter, Inste-W, Becton Dickinson, Sandy, Utah). All wounds were infiltrated with 1% lidocaine before incision. Following surgery, the inspired halothane concentration was reduced to 0.7% and rats were paralyzed with 2 mg/kg intravenous pancuronium, followed by a continuous intravenous infusion of pancuronium at 2 mg/kg/hr. Pancuronium was dissolved in normal saline administered at 5 ml/kg/hr. […] Arterial blood samples (150 μl) withdrawn from cannula were analyzed for arterial partial pressures of oxygen, carbon dioxide, and pH (Ciba-Coming Model 1304) before administration of drugs, and at the end of each experiment before sacrifice, to ensure animal stability. Arterial blood pressure and rectal temperature were monitored throughout the experiment. […]
Regional cortical blood flow was determined by LDF (Perimed, PF2B, Stockholm, Sweden) as described previously (Ayata, et al., 1996, J. Cereb. Blood Flow Metab., 16:539-541). […] All data were collected, stored, and analyzed using MacLab/8 data acquisition and analysis system (ADInstruments, Mountain View, Calif.). […]

D1 receptor [2] = molecular target: T1, D1 receptor; test: SCH-23390 pretreatment before cocaine, CBV-weighted fMRI in rat; type: in vivo; details: post 0.5 mg/kg cocaine
[3] = tested on: Male Harlan Sprague-Dawley rats; test: Arterial blood pressure and heart rate monitoring in rat; details: bolus infusion 1, 5, 10 and 20 mg/kg
Protocol: All procedures were carried out in accordance with NIH guidelines. Male Harlan Sprague-Dawley rats (225-300 gm) were anesthetized briefly with 1.5% halothane in oxygen for insertion of left femoral arterial and venous cannulae and placement of tracheostomy for mechanical ventilation (using a 16 gauge intravenous catheter, Inste-W, Becton Dickinson, Sandy, Utah). All wounds were infiltrated with 1% lidocaine before incision. Following surgery, the inspired halothane concentration was reduced to 0.7% and rats were paralyzed with 2 mg/kg intravenous pancuronium, followed by a continuous intravenous infusion of pancuronium at 2 mg/kg/hr. Pancuronium was dissolved in normal saline administered at 5 ml/kg/hr. Rats were mechanically ventilated (in a small animal volume controlled ventilator, Harvard Apparatus, Inc., South Natick, Mass.) with a 80/20 air/oxygen mixture, an inspiratory to expiratory ratio of 1:1, and an initial tidal volume of 3.0 ml at a rate of 40 breaths per minute. Ventilation parameters were adjusted to maintain normal arterial blood gases (pH=7.40±0.01, PaCO2=40±2, PaO2=145±10). Arterial blood samples (150 μl) withdrawn from cannula were analyzed for arterial partial pressures of oxygen, carbon dioxide, and pH (Ciba-Coming Model 1304) before administration of drugs, and at the end of each experiment before sacrifice, to ensure animal stability. Arterial blood pressure and rectal temperature were monitored throughout the experiment. […] Rats torsos were wrapped in two heating blankets (Gaymar, Orchid Park, N.Y.) circulating warm water to maintain core temperature at 37-38° C. […]
Regional cortical blood flow was determined by LDF (Perimed, PF2B, Stockholm, Sweden) as described previously (Ayata, et al., 1996, J. Cereb. Blood Flow Metab., 16:539-541). […] All data were collected, stored, and analyzed using MacLab/8 data acquisition and analysis system (ADInstruments, Mountain View, Calif.). Arterial pressure was continuously monitored and the data stored; heart rate was calculated from arterial pressure pulses by the data acquisition software. […]

[4] = literature (Schindler 1992, Hemby 1994); cited from earlier work
rat frontal cortex = test: Laser Doppler-flowmetry (LDF) of regional cortical blood flow (CBF) in rat; type: in vivo; details: rat, bolus infusion 1, 5, 10 and 20 mg/kg (data not shown)
Protocol: All procedures were carried out in accordance with NIH guidelines. Male Harlan Sprague-Dawley rats (225-300 gm) were anesthetized briefly with 1.5% halothane in oxygen for insertion of left femoral arterial and venous cannulae and placement of tracheostomy for mechanical ventilation (using a 16 gauge intravenous catheter, Inste-W, Becton Dickinson, Sandy, Utah). All wounds were infiltrated with 1% lidocaine before incision. Following surgery, the inspired halothane concentration was reduced to 0.7% and rats were paralyzed with 2 mg/kg intravenous pancuronium, followed by a continuous intravenous infusion of pancuronium at 2 mg/kg/hr. Pancuronium was dissolved in normal saline administered at 5 ml/kg/hr. Rats were mechanically ventilated (in a small animal volume controlled ventilator, Harvard Apparatus, Inc., South Natick, Mass.) with a 80/20 air/oxygen mixture, an inspiratory to expiratory ratio of 1:1, and an initial tidal volume of 3.0 ml at a rate of 40 breaths per minute. Ventilation parameters were adjusted to maintain normal arterial blood gases (pH=7.40±0.01, PaCO2=40±2, PaO2=145±10). Arterial blood samples (150 μl) withdrawn from cannula were analyzed for arterial partial pressures of oxygen, carbon dioxide, and pH (Ciba-Coming Model 1304) before administration of drugs, and at the end of each experiment before sacrifice, to ensure animal stability. Arterial blood pressure and rectal temperature were monitored throughout the experiment. […] Rats torsos were wrapped in two heating blankets (Gaymar, Orchid Park, N.Y.) circulating warm water to maintain core temperature at 37-38° C. To minimize MRI motion artifact, rats were placed into a custom plastic cradle attached to a head frame machined from delrin plastic (David Kopf Instruments, Fremont, Calif.); heads were fixed with plastic screws inserted into the ear canals and a bar inserted under the front incisors. Rat heads were shaved and covered with gel toothpaste to reduce magnetic susceptibility artifacts arising from air-tissue interfaces; ear canals and oropharynx were also filled with toothpaste. A surface coil was secured over the dorsal surface of the head before positioning the animal in the magnet center. Cocaine (RBI, Natick, Mass.), SCH-23390 (RBI, Natick, Mass.), and cocaine methiodide (NIDA, Bethesda, Md.) were dissolved in normal saline and administered in a 0.5 ml volume at a rate of 1 ml/min via the femoral vein. Sixty minutes passed before injections of cocaine were repeated.
Regional cortical blood flow was determined by LDF (Perimed, PF2B, Stockholm, Sweden) as described previously (Ayata, et al., 1996, J. Cereb. Blood Flow Metab., 16:539-541). Rats (n=8) were prepared exactly as for dynamic MR studies and positioned in a standard stereotaxic head frame. With the scalp incised and retracted, two holes (1-2 mm in diameter) were drilled through the skull 2 mm lateral to midline; one hole was 2 mm anterior to bregma overlying frontal cortex, and the other was 8 mm posterior to bregma to examine occipital cortex. The flow probe was positioned directly upon exposed dura mater in a puddle of mineral oil. […] All data were collected, stored, and analyzed using MacLab/8 data acquisition and analysis system (ADInstruments, Mountain View, Calif.). Arterial pressure was continuously monitored and the data stored; heart rate was calculated from arterial pressure pulses by the data acquisition software. […]

T1 sequence (P18901 whole entry): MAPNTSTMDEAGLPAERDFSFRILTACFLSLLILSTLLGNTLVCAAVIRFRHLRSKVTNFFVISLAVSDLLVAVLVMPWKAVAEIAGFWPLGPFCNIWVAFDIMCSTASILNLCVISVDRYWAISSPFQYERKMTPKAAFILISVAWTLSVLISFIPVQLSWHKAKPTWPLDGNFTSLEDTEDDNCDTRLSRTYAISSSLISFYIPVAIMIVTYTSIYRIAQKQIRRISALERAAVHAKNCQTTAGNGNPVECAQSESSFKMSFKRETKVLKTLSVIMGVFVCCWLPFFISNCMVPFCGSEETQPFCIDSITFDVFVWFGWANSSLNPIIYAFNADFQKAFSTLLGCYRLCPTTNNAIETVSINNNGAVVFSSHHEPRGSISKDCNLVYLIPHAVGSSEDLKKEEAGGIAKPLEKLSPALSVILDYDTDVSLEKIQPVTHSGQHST

| SMILES | change in CBF relative to pre-drug baseline (D1 receptor [1]) | drop in CBV at nadir, frontal neocortex (D1 receptor [2]) | drop in CBV at nadir, striatum (D1 receptor [2]) | blood pressure and heart rate [3] | blood brain barrier passage [4] | change in frontal cortex CBF (rat frontal cortex) |
| --- | --- | --- | --- | --- | --- | --- |
| CN1CCc2cc(Cl)c(O)cc2[C@@H](c2ccccc2)C1 [SCH-23390] | −18±3% | 5% | 8% | – | – | – |
| COC(=O)[C@H]1[C@@H](OC(=O)c2ccccc2)C[C@@H]2CC[C@H]1[N+]2(C)C.[I-] [cocaine methiodide] | – | – | – | transient decrease | does not cross the blood brain barrier | did not produce any significant change |
